Non-standard residues stand in square brackets, D forms with d. Residues, ends and D or L forms follow the SMILES beside them. No end group written: not given here. Cit = NC(=O)NCCC[C@H](N)C(=O)O
Experiments:
[1] = target: T1, HLA-DR15 (DRB1*1501) (Homo sapiens, UniProt P01903+P01911); assay: HLA-DR folding assay (LOCI/AlphaScreen) peptide binding; details: axis "Peptide (nM)", LOCI, 48 h at 18 °C, L243 acceptor beads, five-fold titrations, one representative experiment of two shown, read-out: average Ko
T1 construct: made in house; host or cells: E. coli
Experimental: (§1) Human recombinant HLADRA1*01:01, HLA-DRB1*01:01, and HLA-DRB1*15:01 were expressed in E. coli and purified in a series of liquid chromatography based steps[71].
(§2) We performed peptide-MHC binding assays by two different protocols by ImmunAware, Denmark and Benaroya Institute (USA). In the first protocol, binding was measured using a Luminescent Oxygen Channelling Immunoassay (LOCI), marketed by Perkin Elmer as AlphaScreen[72]. This is a nonradioactive bead-based homogenous proximity assay, where the donor beads containing a photosensitizer compound upon excitation with light at a 680 nm wavelength, converts ambient oxygen to energy-rich, short-lived singlet oxygen; that is transferred to a acceptor beads in close proximity only. The acceptor beads can respond to singlet oxygen with a luminescence/ fluorescence cascade leading to an amplified signal in the 520–620 nm range. As one tag binding to the donor beads: a biotin group engineered unto the HLA β chain. As the other tag binding to the acceptor beads: conformation-dependent HLA class II specific antibody (L243). Thus, only when a fully folded complex is present will the donor and acceptor beads come in sufficient close proximity and give a measurable signal. Biotinylated recombinant HLA class II molecules were diluted from an 8 M urea buffer into a folding buffer (PBS, 20% glycerol, Protease inhibitor mix) with peptide concentrations ranging from 0.13 nM to 10,000 nM. The analysed peptides were tested in 5-to-8 five-fold concentration titrations spanning from 20 μM to 0.3 nM. The reaction mixtures were incubated for 48 h at 18 °C to allow for peptide-HLA complex formation reaching steady state. After incubation, 15 μL of the folding mixture was transferred to a 384-well Optiplate (PerkinElmer) followed by addition of 15 μL of a solution containing L243 acceptor beads and streptavidin donor beads (final concentration of beads was 5 μL/mL). The plates were incubated over night at 18 °C, and then measured in enVisionTM, Perkin Elmer. Assay signals measured in […] were plotted against the offered peptide concentrations, and analyzed by non-linear regression using GraphPad Prism. […]
(§3) Figure S7. […] (A,B) Binding of LL37-peptides to HLA-DR1 (DRB1*0101) and to HLA-DR15 (DRB1*1501) was evaluated by a HLA-DR folding assays and detected by Luminescent Oxygen Channelling Immunoassay (LOCI) described in MM. […] (C-F) Binding to DR16 (DRB1*1601), DRB5 (HLA-DRB5*0101), DR4 (HLA-DRB1*0401) and DR10 (DRB1*1001) was evaluated by peptide competitionassay as in MM, and evaluated fluorimetrically. […]

[2] = target: T2, HLA-DR1 (DRB1*0101) (Homo sapiens, UniProt P01903+P01911, A100R/D57E/F55L/F60I/F76Y/I96L/L162R/M171V/P40L/Q125E/R42F/V115G/Y59C); assay: as above; details: axis "Peptide (nM)", LOCI, 48 h at 18 °C, L243 acceptor beads, five-fold titrations, one representative experiment of two shown, read-out: average Ko
T2 construct: made in house; host or cells: E. coli
Experimental: as §1, §2, §3

[3] = test system: CD3+CD4+ T-cells; assay: T-cell proliferation assay (BrdU incorporation of PBMC); format: cell-based, human; details: SLE/CLE PBMC, day 6, BrdU
Experimental: PBMCs were purified, from EDTA-treated blood, on Ficoll-Hypaque (Pharmacia Fine Chemicals, Uppsala, Sweden) were incubated (10^5 cells/well) in 96-well-flat-bottom-microplates (BD) in T cell- […]
penicillin, and 100 μg/mL streptomycin), with/without peptides. We performed assays on fresh cells, within 1-to-3 hours from collection, or on PBMCs frozen in 90% FCS-10%DMSO, whose viability we assessed by Trypan blue exclusion, at inverted microscope.
At day3 and 5, BrdU was added (1 μg/mL). BrdU-incorporation was detected by APC-labeled anti-BrdU antibody (BD Pharmingen), after surface staining by flow cytometry. Internal control for T-cell viability and proliferation was PHA treatment (2 μg/mL). SI for proliferation was calculated by dividing percent of BrdU-staining in the presence of each peptide used to stimulate cells by percent of BrdU-staining in the absence of peptide stimulation. SI for proliferation was considered positive when>3. This cut-off was obtained by calculating the mean+2DS [1.5 + 2 (0.6)] (of the stimulation indexes calculated as above) of the proliferation of HD.
Basal % of proliferation was set using, as reference, an isotype matched antibody staining (APC- […]
Assays were repeated twice with each patient. In rare cases in which background proliferation exceed antigen-specific proliferation the assay was repeated three times. Concomitant phenotype analysis of LL37-responder T-cells included staining for CD4, CD8, CXCR5, PD1, ICOS, CCR6. […]

[4] = test system: serum antibodies (anti-native LL37/anti-cit-LL37); assay: ELISA for autoantibody detection in sera; format: binding, human; details: for Antibody response to control peptides in SLE: SLE sera, ELISA OD
Experimental: Anti-native/cit-LL37, other antigen antibodies (anti-DNA and anti-RNA), and total anti-human IgG were measured by ELISA as described. Briefly, 96-well flat-bottom plates (Non-Binding surface polystyrene, Corning, USA) are coated with 2 μg/mL of native LL37/cit-LL37 or control proteins or human DNA or human RNA[9] or anti-human IgG antibody (Sigma) in carbonate buffer (0.1 M NaHCHO3, pH 9) for 2 hours (or over night) and washed four times with PBS 0.1% Tween-20. This washing buffer was used for washing at all steps. The blocking buffer containing 2% bovine serum albumin (BSA, Sigma) in PBS was used for at least 1 hour (or over night) to saturate unspecific binding sites. After washing, sera were diluted at various concentrations (usually 1:100 or 1:200) in PBS 2% BSA (cell culture supernatants were diluted 1:2, 1:4 or 1:10) followed by 1 hour incubation with a horseradish peroxidase–conjugated (HRP) goat anti-human IgG (Sigma-Aldrich), diluted 1:10,000 in PBS. The color was developed for 5 minutes with 3,3’,5,5’-tetramethylbenzidine (TMB) substrate (Sigma-Aldrich). The reaction was stopped by adding 50 μl of 2 N H2SO4, and absorbance determined at 450 nm with a reference wavelength of 540 nm. Anti-dsDNA in sera of lupus patients were detected by the standard clinical test Kallestad Crithidia luciliae Complete Kits for detection and semi-quantitation of autoantibodies to native DNA (nDNA) antigens by indirect fluorescence antibody (IFA) procedure. ELISA for detection of anti-tetanus antibodies (anti-TT) was from Abnova (Taiwan).

[5] = test system: DNA; details: cited from earlier work
[6] = test system: SLE/CLE CD4+ T-cell clones; assay: T-cell clone reactivity (BrdU, HLA-matched B-LCLs pulsed with peptide); format: cell-based, human; details: clones from one SLE and one CLE patient
Experimental: PBMCs were purified, from EDTA-treated blood, on Ficoll-Hypaque (Pharmacia Fine Chemicals, Uppsala, Sweden) were incubated (10^5 cells/well) in 96-well-flat-bottom-microplates (BD) in T cell-medium (RPMI 1640, 10% heat-inactivated human serum, HS, Gibco), 2 mM L-glutamine, 10 U/mL penicillin, and 100 μg/mL streptomycin), with/without peptides. We performed assays on fresh cells, within 1-to-3 hours from collection, or on PBMCs frozen in 90% FCS-10%DMSO, whose viability we assessed by Trypan blue exclusion, at inverted microscope. Recovery of live cells was between 65 and 85 % of the frozen number. At day3 and 5, BrdU was added (1 μg/mL). BrdU-incorporation was detected by APC-labeled anti-BrdU antibody (BD Pharmingen), after surface staining by flow cytometry. Internal control for T-cell viability and proliferation was PHA treatment (2 μg/mL). SI for proliferation was calculated by dividing percent of BrdU-staining in the presence of each peptide used to stimulate cells by percent of BrdU-staining in the absence of peptide stimulation. SI for proliferation was considered positive when>3. This cut-off was obtained by calculating the mean+2DS [1.5 + 2 (0.6)] (of the stimulation indexes calculated as above) of the proliferation of HD. […]
Assays were repeated twice with each patient. […] Ror-ɣt and Bcl-6 were measured by intracellular staining and flow cytometry, after 48 hours culture with LL37 or control antigen, and were analyzed on CD38highCD4 T-cells. […]
PBMCs were stimulated (2x10^6 cells/mL) with LL37 for 7 days and re-stimulated (10 days) with LL37-pulsed (10 µg/mL) autologous-ɣ-irradiated-(30Gy)-PBMCs in T-cell medium in the presence of human/recombinant (hr)IL-2 (Boehringer-Mannheim, Indian, USA). T cell lines-specificity was analyzed by using peptide-pulsed (0.1-10 µg/mL) autologous-irradiated PBMCs (30Gy) or lymphoblastoid-cell-lines (B-LCLs) (150Gy, 33). […]
analyzed by flow-cytometry (after staining by BrdU-detection kit, BD Pharmingen). […] Clones reactivity and HLA-restriction were analyzed using HLA-matched-homozigous B-LCLs, pulsed with […]

## CC[C@H](C)[C@H](NC(=O)[C@H](CCCCN)NC(=O)[C@H](CCC(=O)O)NC(=O)[C@H](CCCCN)NC(=O)[C@H](CO)NC(=O)[C@H](CCCCN)NC(=O)[C@H](CCCNC(N)=O)NC(=O)[C@H](Cc1ccccc1)NC(=O)[C@H](Cc1ccccc1)NC(=O)[C@H](CC(=O)O)NC(=O)CNC(=O)[C@H](CC(C)C)NC(=O)[C@@H](N)CC(C)C)C(=O)NCC(=O)N[C@@H](CCCCN)C(=O)O [cit-P1] (H-LLGDFF[Cit]KSKEKIGK-OH)
[1]
  Kd: 3440 nM

## LLGDFFRKSKEKIGK [P1]
[1]
  Kd: 700 nM

## CC(C)C[C@H](NC(=O)[C@H](Cc1ccccc1)NC(=O)[C@H](CC(=O)O)NC(=O)[C@@H](N)CCCCN)C(=O)N[C@@H](CCCNC(N)=O)C(=O)N[C@@H](CC(N)=O)C(=O)N[C@@H](CC(C)C)C(=O)N[C@H](C(=O)N1CCC[C@H]1C(=O)N[C@@H](CCCNC(N)=O)C(=O)N[C@H](C(=O)N[C@@H](CCC(=O)O)C(=O)N[C@@H](CO)C(=O)O)[C@@H](C)O)C(C)C [cit-P7] (H-KDFL[Cit]NLVP[Cit]TES-OH)
[2]
  Kd: 305 nM

## GIINTLQKYYCRVRGGRCAVLSCLPKEEQIGKCSTRGRKCCRRKK [HBD3, control unrelated AMP human β-defensin-3, reference compound]
[3]
  T-cell response to control or short peptides: not significant

## SETRPVLNRLFDKIRQVIRKEFEKGIKEKSKRFFDGLL [REV, reference compound]
[4]
  Antibody response to control peptides in SLE: negative
[3]
  T-cell response to control or short peptides: did not elicit T-cell responses
[5]
  DNA-binding activity: retains DNA-binding activity

## SETR(cit)PVLNR(cit)LFDKIR(cit)QVIR(cit)KEFEKGIKEKSKR(cit)FFDGLL [cit-REV, citrullinated REV peptide, reference compound]
[4]; RA sera, 14 of 70
  RA sera with antibody reactivity: 20%
[4]
  Antibody response to control peptides in SLE: negative

## KDFLRNLVPRTES [P7]
[2]
  Kd: 60 nM

## CPKYVKQNTLKLATG [HA306–320, promiscuously presented peptide derived from the hemoagglutinin protein of Influenza A, reference compound]
[6]
  T-cell clone reactivity: did not cross-react
